Patent publication US20230011869A1 (Hoffmann-La Roche Inc., priority 2018, published 2023)
Structures can show the parent of a compound that is named as a salt.

What follows are compounds tested on Acinetobacter baumannii ATCC17961 (assay: Antimicrobial susceptibility testing: 90% growth inhibitory concentration (IC90) determination, Iso-Sensitest broth). Conditions: Acinetobacter baumannii, ATCC17961, 16 h, 90% growth inhibitory concentration, Acinetobacter baumannii ATCC17961, Iso-Sensitest broth, OD 600 nm over 16 h; read-out: ATCC17961 IC90.
Assay type: cell-based
Procedure: Antimicrobial Susceptibility Testing:
90% Growth Inhibitory Concentration (IC90) Determination
The in vitro antimicrobial activity of the compounds was determined according to the following procedure:
The assay used a 10-points Iso-Sensitest broth medium to measure quantitatively the in vitro activity of the compounds against Acinetobacter baumannii ATCC17978 and Acinetobacter baumannii ATCC17961.
Stock compounds in DMSO were serially twofold diluted (e.g. range from 50 to 0.097 μM final concentration) in 384 wells microtiter plates and inoculated with 49 μl the bacterial suspension in Iso-Sensitest medium to have a final cell concentration of 5×10^(5) CFU/ml in a final volume/well of 50 ul/well. Microtiter plates were incubated at 35±2° C.
Bacterial cell growth was determined with the measurement of optical density at λ=600 nm each 20 minutes over a time course of 16 h. Growth inhibition was calculated during the logarithmic growth of the bacterial cells with determination of the concentration inhibiting 50% (IC50) and 90% (IC90) of the growth.
Table 1 provides the 90% growth inhibitory concentrations (IC90) in micromoles per liter of the compounds of present invention obtained against the strain Acinetobacter baumannii ATCC17978 and Acinetobacter baumannii ATCC17961.

| SMILES | IC90 |
| --- | --- |
| COc1ccc(-c2cnc3c(Nc4ccc(C(=O)N5CCN(C(=O)[C@@H]6NCC[C@@H]6O)CC5)c(C)c4)nccn23)c(F)c1F [Example 79, [4-[[3-(2,3-difluoro-4-methoxyphenyl)imidazo[1,2-a]pyrazin-8-yl]amino]-2-methylphenyl]-[4-[(2R,3S)-3-hydroxypyrrolidine-2-carbonyl]piperazin-1-yl]methanone;hydrochloride] | 167 nM |
| COc1ccc(-c2cnc3c(Nc4ccc(C(=O)N5CCN(C(=O)C6(C)CCCN6)CC5)c(C)c4)nccn23)c(F)c1F (centres unmarked) [Example 80, (4-(4-((3-(2,3-difluoro-4-methoxyphenyl)imidazo[1,2-a]pyrazin-8-yl)amino)-2-methylbenzoyl)piperazin-1-yl)(2-methylpyrrolidin-2-yl)methanone hydrochloride] | 81 nM |
| COc1ccc(-c2cnc3c(Nc4ccc(C(=O)N5CCN(C(=O)[C@@H]6C[C@@H](F)CN6)CC5)c(C)c4)nccn23)c(F)c1F [Example 81, (4-(4-((3-(2,3-difluoro-4-methoxyphenyl)imidazo[1,2-a]pyrazin-8-yl)amino)-2-methylbenzoyl)piperazin-1-yl)((2S,4R)-4-fluoropyrrolidin-2-yl)methanone hydrochloride] | 106 nM |
| COc1ccc(-c2cnc3c(Nc4ccc(C(=O)N5CCN(C(=O)[C@@H]6C[C@H](F)CN6)CC5)c(C)c4)nccn23)c(F)c1F [Example 83, (4-(4-((3-(2,3-difluoro-4-methoxyphenyl)imidazo[1,2-a]pyrazin-8-yl)amino)-2-methylbenzoyl)piperazin-1-yl)((2S,4S)-4-fluoropyrrolidin-2-yl)methanone hydrochloride] | 85 nM |
| Cc1cc(Nc2nccn3c(-c4ccc(OCC#N)c(F)c4F)cnc23)ccc1C(=O)N1CCC(C(=O)N2CC3(CNC3)C2)CC1 [Example 87, 2-(4-(8-((4-(4-(2,6-diazaspiro[3.3]heptane-2-carbonyl)piperidine-1-carbonyl)-3-methylphenyl)amino)imidazo[1,2-a]pyrazin-3-yl)-2,3-difluorophenoxy)acetonitrile] | 166 nM |
| COc1ccc(-c2cnc3c(Nc4ccc(C(=O)N5CCC(C(=O)NCC(O)CNC(N)=O)CC5)c(C)c4)nccn23)c(F)c1F (centres unmarked) [Example 88, 1-(4-((3-(2,3-difluoro-4-methoxyphenyl)imidazo[1,2-a]pyrazin-8-yl)amino)-2-methylbenzoyl)-N-(2-hydroxy-3-ureidopropyl)piperidine-4-carboxamide] | 195 nM |
| COc1ccc(-c2cnc3c(Nc4ccc(C(=O)N5CCC(C(=O)NCC(O)CN(C)C)CC5)c(C)c4)nccn23)c(F)c1F (centres unmarked) [Example 89, 1-(4-((3-(2,3-difluoro-4-methoxyphenyl)imidazo[1,2-a]pyrazin-8-yl)amino)-2-methylbenzoyl)-N-(3-(dimethylamino)-2-hydroxypropyl)piperidine-4-carboxamide] | 72 nM |
| COc1ccc(-c2cnc3c(Nc4ccc(C(=O)N5CCC(C(=O)NCC(O)CN6CCNCC6)CC5)c(C)c4)nccn23)c(F)c1F (centres unmarked) [Example 90, 1-(4-((3-(2,3-difluoro-4-methoxyphenyl)imidazo[1,2-a]pyrazin-8-yl)amino)-2-methylbenzoyl)-N-(2-hydroxy-3-(piperazin-1-yl)propyl)piperidine-4-carboxamide hydrochloride] | 116 nM |
| COc1ccc(-c2cnc3c(Nc4ccc(C(=O)N5CCN(C(=O)[C@@H]6C[C@@H](O)CN6)CC5)c(C)c4)nccn23)cc1Cl [Example 92, (4-(4-((3-(3-chloro-4-methoxyphenyl)imidazo[1,2-a]pyrazin-8-yl)amino)-2-methylbenzoyl)piperazin-1-yl)((2S,4R)-4-hydroxypyrrolidin-2-yl)methanone hydrochloride] | 98 nM |
| COc1ccc(-c2cnc3c(Nc4ccc(C(=O)N5CCN(C(=O)[C@@H]6C[C@@H](O)CN6)CC5)c(C)c4)nccn23)c(F)c1Cl [Example 93, (4-(4-((3-(3-chloro-2-fluoro-4-methoxyphenyl)imidazo[1,2-a]pyrazin-8-yl)amino)-2-methylbenzoyl)piperazin-1-yl)((2S,4R)-4-hydroxypyrrolidin-2-yl)methanone hydrochloride] | 84 nM |
| Cc1cc(Nc2nccn3c(-c4ccc(OCC#N)c(Cl)c4)cnc23)ccc1C(=O)N1CCN(C(=O)[C@@H]2C[C@@H](O)CN2)CC1 [Example 94, 2-(2-chloro-4-(8-((4-(4-((2S,4R)-4-hydroxypyrrolidin-2-carbonyl)piperazine-1-carbonyl)-3-methylphenyl)amino)imidazo[1,2-a]pyrazin-3-yl)phenoxy)acetonitrile] | 69 nM |
| C#CCOc1ccc(-c2cnc3c(Nc4ccc(C(=O)N5CCC(CN)CC5)c(C)c4)nccn23)c(F)c1F [Example 121, [4-(aminomethyl)-1-piperidyl]-[4-[[3-(2,3-difluoro-4-prop-2-ynoxy-phenyl)imidazo[1,2-a]pyrazin-8-yl]amino]-2-methyl-phenyl]methanone; formic acid] | 33 nM |
| COc1ccc(-c2cnc3c(Nc4ccc(C(=O)N5CCNCC5)c(C)c4)nccn23)c(F)c1F [Example 141, [4-[[3-(2,3-difluoro-4-methoxyphenyl)imidazo[1,2-a]pyrazin-8-yl]amino]-2-methylphenyl]-piperazin-1-ylmethanone] | 117 nM |
| COc1ccc(-c2cnc3c(Nc4ccc(C(=O)N5CCN(C(=O)NCCN)CC5)c(C)c4)nccn23)c(Cl)c1F [Example 153, N-(2-aminoethyl)-4-[4-[[3-(2-chloro-3-fluoro-4-methoxy-phenyl)imidazo[1,2-a]pyrazin-8-yl]amino]-2-methyl-benzoyl]piperazine-1-carboxamide formate] | 50 nM |
| Cc1cc(Nc2nccn3c(-c4ccc(OCC#N)c(F)c4Cl)cnc23)ccc1C(=O)N1CCN(C(=O)N2CCO[C@@H](CN)C2)CC1 [Example 158, 2-[4-[8-[4-[4-[(2S)-2-(aminomethyl)morpholine-4-carbonyl]piperazine-1-carbonyl]-3-methyl-anilino]imidazo[1,2-a]pyrazin-3-yl]-3-chloro-2-fluoro-phenoxy]acetonitrile formate] | 74 nM |
| Cc1cc(Nc2nccn3c(-c4ccc(OCC#N)c(F)c4Cl)cnc23)ccc1C(=O)N1CCN(C(=O)NCCN)CC1 [Example 159, N-(2-aminoethyl)-4-[4-[[3-[2-chloro-4-(cyanomethoxy)-3-fluoro-phenyl]imidazo[1,2-a]pyrazin-8-yl]amino]-2-methyl-benzoyl]piperazine-1-carboxamide formate] | 35 nM |
| Cc1cc(Nc2nccn3c(-c4ccc(OCC#N)c(F)c4Cl)cnc23)ccc1C(=O)N1CCN(C(=O)N[C@@H](C)CN)CC1 [Example 162, N-[(1S)-2-amino-1-methyl-ethyl]-4-[4-[[3-[2-chloro-4-(cyanomethoxy)-3-fluoro-phenyl]imidazo[1,2-a]pyrazin-8-yl]amino]-2-methyl-benzoyl]piperazine-1-carboxamide formate] | 46 nM |
| COc1ccc(-c2cnc3c(Nc4ccc(C(=O)N5CCN(C(=O)N6CCN[C@@H](CO)C6)CC5)c(C)c4)nccn23)c(F)c1F [Example 172, (R)-(4-(4-((3-(2,3-difluoro-4-methoxyphenyl)imidazo[1,2-a]pyrazin-8-yl)amino)-2-methylbenzoyl)piperazin-1-yl)(3-(hydroxymethyl)piperazin-1-yl)methanone hydrochloride] | 78 nM |
| Cc1cc(Nc2nccn3c(-c4ccc(OC(F)F)cc4)cnc23)ccc1C(=O)N1CCN(C(=O)C2CCNCC2)CC1 [Example 173, [4-[[3-[4-(difluoromethoxy)phenyl]imidazo[1,2-a]pyrazin-8-yl]amino]-2-methyl-phenyl]-[4-(piperidine-4-carbonyl)piperazin-1-yl]methanone hydrochloride] | 35 nM |
| COc1ccc(-c2cnc3c(Nc4ccc(C(=O)N5CCN(C(=O)[C@@H]6C[C@@H](O)CN6)CC5)c(C)c4)nccn23)c(F)c1F [Example 184, [4-[[3-(2,3-difluoro-4-methoxy-phenyl)imidazo[1,2-a]pyrazin-8-yl]amino]-2-methyl-phenyl]-[4-[(2S,4R)-4-hydroxypyrrolidine-2-carbonyl]piperazin-1-yl]methanone hydrochloride] | 41 nM |
| Cc1cc(Nc2nccn3c(-c4ccc(OCC#N)c(F)c4F)cnc23)ccc1C(=O)N1CCN(C(=O)[C@@H]2CCNC[C@@H]2O)CC1 [Example 188, 2-[2,3-difluoro-4-[8-[4-[4-[(3R,4R)-3-hydroxypiperidine-4-carbonyl]piperazine-1-carbonyl]-3-methyl-anilino]imidazo[1,2-a]pyrazin-3-yl]phenoxy] acetonitrile formate] | 51 nM |

Same assay, conditions: Acinetobacter baumannii, ATCC17961, 16 h, read-out: ATCC17961 IC90

| SMILES | IC90 |
| --- | --- |
| COc1ccc(-c2cnc3c(Nc4ccc(C(=O)N5CCN(C(=O)[C@H]6NCC[C@H]6O)CC5)c(C)c4)nccn23)c(F)c1F [Example 78, (4-(4-((3-(2,3-difluoro-4-methoxyphenyl)imidazo[1,2-a]pyrazin-8-yl)amino)-2-methylbenzoyl)piperazin-1-yl)((2S,3R)-3-hydroxypyrrolidin-2-yl)methanone hydrochloride] | 87 nM |
| COC[C@@H]1CN[C@H](C(=O)N2CCN(C(=O)c3ccc(Nc4nccn5c(-c6ccc(OC)c(F)c6F)cnc45)cc3C)CC2)C1 [Example 84, (4-(4-((3-(2,3-difluoro-4-methoxyphenyl)imidazo[1,2-a]pyrazin-8-yl)amino)-2-methylbenzoyl)piperazin-1-yl)((2S,4S)-4-(methoxymethyl)pyrrolidin-2-yl)methanone hydrochloride] | 76 nM |
